Data published in US20240090503A1, “FUNGICIDAL OXADIAZOLES AND THEIR MIXTURES” (FMC CORPORATION, priority 2020, published 2024).

What was measured:
[1] = test system: Phakopsora pachyrhizi (the causal agent of Asian soybean rust); assay: Test A: preventive spray on soybean seedlings, Asian soybean rust, visual disease rating; assay type: in vivo; conditions: soybean seedlings; for pest or weed control at 10 µg/mL: read-out: Test A disease control rating
In short: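 Preventive test: soybean seedlings received a run-off spray of compound suspended at the set ppm in 50/50 acetone/water plus 250 ppm PEG400, and one day later a P. pachyrhizi spore inoculum. Visual scoring (0 none to 100 full disease control) followed 24 h saturated incubation and 8 days' growth chamber, both at 22° C.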

[2] = test system: Puccinia recondita f. sp. tritici (the causal agent of wheat leaf rust); assay: Test C: preventive spray on wheat seedlings, wheat leaf rust, visual disease rating; assay type: in vivo; conditions: wheat seedlings; for pest or weed control at 10 µg/mL: read-out: Test C disease control rating
In short: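 Wheat seedlings sprayed to run-off with compound in acetone/water (50/50) with 250 ppm PEG400, then inoculated with spores the following day. After 24 h saturated humidity at 20° C. and 6 days in growth chamber at 20° C., disease rated visually as % control relative to untreated controls.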

[3] = test suspension 10 ppm, 100 = 100% disease control, 0 = no control
[4] = 10 ppm test suspension, 100 = 100% disease control, 0 = no control
[5] = 50 ppm test suspension, 100 = 100% disease control, 0 = no control
[6] = Phakopsora pachyrhizi, 216 h, test suspension 10 ppm, 100 = 100% disease control, 0 = no control
[7] = Puccinia recondita, 168 h, test suspension 10 ppm

## CC(C)(C)ONC(=O)c1cnn(Cc2ccc(-c3noc(C(F)(F)F)n3)cc2)c1 [compound 273]
[1]; [3]
  Test A disease control rating: 100%
[2]; test suspension 10 ppm
  Test C disease control rating: 100%

## CCOC(=O)c1c(C)nn(Cc2ccc(-c3noc(C(F)(F)F)n3)cc2)c1C [compound 66]
[1]; test suspension 255 ppm
  Test A disease control rating: 100%
[2]; test suspension 255 ppm
  Test C disease control rating: 100%

## FC(F)(F)c1nc(-c2ccc(Cn3cc4ncccc4n3)cc2)no1 [compound 409]
[1]; [4]
  Test A disease control rating: 100%
[2]; [4]
  Test C disease control rating: 100%

## Cc1cc(C(=O)OCC#N)nn1Cc1ccc(-c2noc(C(F)(F)F)n2)cc1 [compound 185]
[1]; [3]
  Test A disease control rating: 100%
[2]; test suspension 10 ppm
  Test C disease control rating: 98%

## FC(F)(F)c1nc(-c2ccc(Cn3ncc4c(I)ccnc43)cc2)no1 [compound 444]
[1]; [4]
  Test A disease control rating: 96%
[2]; [4]
  Test C disease control rating: 86%

## COc1ccc2c(C#N)n(Cc3ccc(-c4noc(C(F)(F)F)n4)cc3)nc2c1 [compound 121]
[1]; [3]
  Test A disease control rating: 87%
[2]; test suspension 10 ppm
  Test C disease control rating: 0%

## CC1(COC(=O)c2cnn(Cc3ccc(-c4noc(C(F)(F)F)n4)cc3)c2)COC1 [compound 269]
[1]; [3]
  Test A disease control rating: 100%
[2]; test suspension 10 ppm
  Test C disease control rating: 100%

## COC(=O)c1c2ccccc2nn1Cc1ccc(-c2noc(C(F)(F)F)n2)cc1 [compound 141]
[1]; [3]
  Test A disease control rating: 100%
[2]; test suspension 10 ppm
  Test C disease control rating: 88%

## CC(=O)Nc1cnn(Cc2ccc(-c3noc(C(F)(F)F)n3)cc2)c1 [compound 441]
[1]; [4]
  Test A disease control rating: 87%
[2]; [4]
  Test C disease control rating: 9%

## CN(C)C(=O)C1=NOC(Cc2ccc(-c3noc(C(F)(F)F)n3)s2)C1 (centres unmarked) [compound 460]
[1]; [5]
  Test A disease control rating: 100%
[2]; [5]
  Test C disease control rating: 99%

## N#Cc1nn(Cc2ccc(-c3noc(C(F)(F)F)n3)cc2)c2ccccc12 [compound 104]
[1]; [3]
  Test A disease control rating: 100%
[2]; test suspension 10 ppm
  Test C disease control rating: 68%

## CCOC(=O)c1cnn(CSCc2ccc(-c3noc(C(F)(F)F)n3)cc2)c1 [compound 241]
[1]; [3]
  Test A disease control rating: 100%
[2]; test suspension 10 ppm
  Test C disease control rating: 100%

## COC(=O)C1COC(Cc2ccc(-c3noc(C(F)(F)F)n3)cc2)=N1 (centres unmarked) [Compound 74, methyl 4,5-dihydro-2-[[4-[5-(trifluoromethyl)-1,2,4-oxadiazol-3-yl]phenyl]methyl]-4-oxazolecarboxylate]
[1]; [6]
  pest or weed control at 10 µg/mL: 99%
[2]; [7]
  pest or weed control at 10 µg/mL: 51%

## CN(C)C(=O)C1COC(Cc2ccc(-c3noc(C(F)(F)F)n3)cc2)=N1 (centres unmarked) [Compound 178, 4,5-dihydro-N,N-dimethyl-2-[[4-[5-(trifluoromethyl)-1,2,4-oxadiazol-3-yl]phenyl]methyl]-4-oxazolecarboxamide]
[1]; [6]
  pest or weed control at 10 µg/mL: 96%
[2]; [7]
  pest or weed control at 10 µg/mL: 68%

## CCOC(=O)c1cnn(C(C)c2ccc(-c3noc(C(F)(F)F)n3)s2)c1 (centres unmarked) [compound 247]
[1]; [3]
  Test A disease control rating: 100%
[2]; test suspension 10 ppm
  Test C disease control rating: 100%

## CC(C)OC(=O)c1cnn(Cc2ccc(-c3noc(C(F)(F)F)n3)s2)c1 [compound 200]
[1]; [3]
  Test A disease control rating: 100%
[2]; test suspension 10 ppm
  Test C disease control rating: 100%

## O=C(OCc1ccccn1)c1cnn(Cc2ccc(-c3noc(C(F)(F)F)n3)cc2)c1 [compound 479]
[1]; [4]
  Test A disease control rating: 100%
[2]; [4]
  Test C disease control rating: 100%

## CCOC(=O)c1cnn(CCOc2ccc(-c3noc(C(F)(F)F)n3)cc2)c1 [compound 308]
[1]; [3]
  Test A disease control rating: 0%
[2]; test suspension 10 ppm
  Test C disease control rating: 0%

## COC(=O)C1(NC(=O)c2cnn(Cc3ccc(-c4noc(C(F)(F)F)n4)cc3)c2)CC1 [compound 172]
[1]; [3]
  Test A disease control rating: 100%
[2]; test suspension 10 ppm
  Test C disease control rating: 99%

## CCCCOC(=O)c1cnn(Cc2ccc(-c3noc(C(F)(F)F)n3)cc2)c1 [compound 410]
[1]; [4]
  Test A disease control rating: 100%
[2]; [4]
  Test C disease control rating: 100%

## O=C(OCC1CC1)c1cnn(Cc2ccc(-c3noc(C(F)(F)F)n3)cc2)c1 [compound 411]
[1]; [4]
  Test A disease control rating: 100%
[2]; [4]
  Test C disease control rating: 100%

## FC(F)(F)c1nc(-c2ccc(Cn3ccc(Br)n3)cc2)no1 [compound 97]
[1]; test suspension 50 ppm
  Test A disease control rating: 99%
[2]; test suspension 50 ppm
  Test C disease control rating: 100%

## FC(F)(F)c1nc(-c2ccc(Cn3ncc4c(I)cc(Cl)cc43)cc2)no1 [compound 39]
[1]; [3]
  Test A disease control rating: 44%
[2]; test suspension 10 ppm
  Test C disease control rating: 28%

## N#Cc1ccc2c(cnn2Cc2ccc(-c3noc(C(F)(F)F)n3)cc2)c1 [compound 106]
[1]; test suspension 50 ppm
  Test A disease control rating: 100%
[2]; test suspension 50 ppm
  Test C disease control rating: 100%

## O=C1c2ccnn2CCN1Cc1ccc(-c2noc(C(F)(F)F)n2)cc1 [compound 297]
[1]; [3]
  Test A disease control rating: 100%
[2]; test suspension 10 ppm
  Test C disease control rating: 93%

## O=C(COC(=O)c1cnn(Cc2ccc(-c3noc(C(F)(F)F)n3)cc2)c1)c1ccccc1 [compound 244]
[1]; [3]
  Test A disease control rating: 100%
[2]; test suspension 10 ppm
  Test C disease control rating: 95%

## O=C(OCCBr)c1cnn(Cc2ccc(-c3noc(C(F)(F)F)n3)cc2)c1 [compound 478]
[1]; [5]
  Test A disease control rating: 81%
[2]; [5]
  Test C disease control rating: 19%

## FC(F)(F)c1nc(-c2ccc(Cn3ccc4cnccc43)cc2)no1 [compound 137]
[1]; [3]
  Test A disease control rating: 100%
[2]; test suspension 10 ppm
  Test C disease control rating: 41%

## CCOC(=O)c1cnn(Cc2ccc(-c3noc(C(F)(F)F)n3)cc2F)c1 [compound 304]
[1]; [3]
  Test A disease control rating: 100%
[2]; test suspension 10 ppm
  Test C disease control rating: 100%

## CON(C)C(=O)c1nn(Cc2ccc(-c3noc(C(F)(F)F)n3)cc2)c2ccccc12 [compound 43]
[1]; [3]
  Test A disease control rating: 100%
[2]; test suspension 10 ppm
  Test C disease control rating: 96%

## FC(F)(F)c1nc(-c2ccc(Cn3ccc(S(F)(F)(F)(F)F)n3)cc2)no1 [compound 503]
[1]; [4]
  Test A disease control rating: 43%
[2]; [4]
  Test C disease control rating: 0%

## COCCNC(=O)C1=NOC(Cc2ccc(-c3noc(C(F)(F)F)n3)s2)C1 (centres unmarked) [compound 461]
[1]; [5]
  Test A disease control rating: 100%
[2]; [5]
  Test C disease control rating: 100%

## N#CCNC(=O)c1nn(Cc2ccc(-c3noc(C(F)(F)F)n3)cc2)c2ccccc12 [compound 44]
[1]; [3]
  Test A disease control rating: 100%
[2]; test suspension 10 ppm
  Test C disease control rating: 95%

## CCON=Cc1cnn(Cc2ccc(-c3noc(C(F)(F)F)n3)cc2)c1 [compound 384]
[1]; [4]
  Test A disease control rating: 100%
[2]; [4]
  Test C disease control rating: 100%

## CNC(=O)C1=NOC(Cc2ccc(-c3noc(C(F)(F)F)n3)s2)C1 (centres unmarked) [compound 368]
[1]; test suspension 50 ppm
  Test A disease control rating: 100%
[2]; test suspension 50 ppm
  Test C disease control rating: 100%

## Cc1nn(Cc2ccc(-c3noc(C(F)(F)F)n3)cc2)c2ccccc12 [compound 99]
[1]; [3]
  Test A disease control rating: 100%
[2]; test suspension 10 ppm
  Test C disease control rating: 68%

## O=c1ccc(Cl)nn1Cc1ccc(-c2noc(C(F)(F)F)n2)cc1 [Compound 4, 6-chloro-2-[[4-[5-(trifluoromethyl)-1,2,4-oxadiazol-3-yl]phenyl]methyl]-3(2H)-pyridazinone]
[1]; Phakopsora pachyrhizi, 216 h, test suspension 50 ppm
  pest or weed control at 50 µg/mL: 100%
[2]; Puccinia recondita, 168 h, test suspension 50 ppm
  pest or weed control at 50 µg/mL: 100%

## COc1ccc(C(O)c2ccc(-c3noc(C(F)(F)F)n3)cc2)cc1 (centres unmarked) [compound 309]
[1]; test suspension 50 ppm
  Test A disease control rating: 100%
[2]; test suspension 50 ppm
  Test C disease control rating: 68%

## CCOC(=O)c1cnn(CCc2ccc(-c3noc(C(F)(F)F)n3)cc2)c1 [compound 437]
[1]; [4]
  Test A disease control rating: 100%
[2]; [4]
  Test C disease control rating: 86%

## CN(C)C(=O)c1cnn(CCCc2ccc(-c3noc(C(F)(F)F)n3)cc2)c1 [compound 406]
[1]; [4]
  Test A disease control rating: 100%
[2]; [4]
  Test C disease control rating: 93%

## COCCNC(=O)c1cc(C)n(Cc2ccc(-c3noc(C(F)(F)F)n3)cc2)n1 [Compound 183, N-(2-methoxyethyl)-5-methyl-1-[[4-[5-(trifluoromethyl)-1,2,4-oxadiazol-3-yl]phenyl]methyl]-1H-pyrazole-3-carboxamide]
[1]; [6]
  pest or weed control at 10 µg/mL: 100%
[2]; [7]
  pest or weed control at 10 µg/mL: 100%

## FC(F)(F)c1nc(-c2ccc(Cn3cc4cc(Br)cnc4n3)cc2)no1 [compound 414]
[1]; [4]
  Test A disease control rating: 100%
[2]; [4]
  Test C disease control rating: 100%

## CON=C(COC(=O)c1cnn(Cc2ccc(-c3noc(C(F)(F)F)n3)cc2)c1)c1ccccc1 [compound 245]
[1]; [3]
  Test A disease control rating: 100%
[2]; test suspension 10 ppm
  Test C disease control rating: 86%

## C=C(Br)COC(=O)c1cnn(Cc2ccc(-c3noc(C(F)(F)F)n3)cc2)c1 [compound 167]
[1]; [3]
  Test A disease control rating: 100%
[2]; test suspension 10 ppm
  Test C disease control rating: 100%

## N#CCNC(=O)c1cnn(Cc2ccc(-c3noc(C(F)(F)F)n3)cc2)c1 [compound 65]
[1]; [3]
  Test A disease control rating: 100%
[2]; test suspension 10 ppm
  Test C disease control rating: 100%

## FC(F)(F)c1nc(-c2ccc(Cn3nc4ccccc4c3Br)cc2)no1 [compound 113]
[1]; [3]
  Test A disease control rating: 99%
[2]; test suspension 10 ppm
  Test C disease control rating: 0%

## CN(C)C(=O)c1nn(Cc2ccc(-c3noc(C(F)(F)F)n3)cc2)c2ccccc12 [compound 148]
[1]; [3]
  Test A disease control rating: 100%
[2]; test suspension 10 ppm
  Test C disease control rating: 96%

## COC(=O)c1ccc2c(cnn2Cc2ccc(-c3noc(C(F)(F)F)n3)cc2)c1 [compound 48]
[1]; [3]
  Test A disease control rating: 100%
[2]; test suspension 10 ppm
  Test C disease control rating: 89%

## FC(F)(F)c1nc(-c2ccc(Cn3ncc4c(Cl)cc(Br)cc43)cc2)no1 [compound 53]
[1]; [3]
  Test A disease control rating: 0%
[2]; test suspension 10 ppm
  Test C disease control rating: 9%
